This is an account of results in ChEMBL document CHEMBL1126239, “Quinazoline antifolate thymidylate synthase inhibitors: difluoro-substituted benzene ring analogues” (J Med Chem, 1992).

Assay [1] relates to L1210. The experiment in a line: The compound was tested in vitro for the inhibition of L1210 cell growth in culture. In kind it is functional, cell-based. As to conditions: Mus musculus.
The subject of assay [2] is L1210. Put plainly: The compound was tested in vitro for the inhibition of L1210 cell growth in the presence of thymidine. On the set-up: concentration or dose not given beside the values. It counts as functional, Mus musculus.
For a further assay, the target named is Thymidylate synthase (Mus musculus, UniProt P07607). The experiment in a line: Inhibition of thymidylate synthase from L1210 cells. It counts as cell-based.
Thymidylate synthase, sequence (P07607 whole entry): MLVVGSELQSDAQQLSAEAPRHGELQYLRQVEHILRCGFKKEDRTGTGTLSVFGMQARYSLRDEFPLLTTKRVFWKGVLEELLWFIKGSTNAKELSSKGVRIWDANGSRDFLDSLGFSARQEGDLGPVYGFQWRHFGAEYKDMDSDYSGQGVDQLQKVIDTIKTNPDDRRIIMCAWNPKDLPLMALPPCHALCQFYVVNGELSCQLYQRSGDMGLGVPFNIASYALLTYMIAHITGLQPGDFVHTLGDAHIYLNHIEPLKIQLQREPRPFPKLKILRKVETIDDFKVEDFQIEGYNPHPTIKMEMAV

As usually defined, the IC50 is the concentration that gives 50% inhibition. With `C#CCN(Cc1ccc2nc(C)nc(O)c2c1)c1ccc(C(=O)N[C@@H](CCC(=O)O)C(=O)O)c(F)c1F`, the IC50 in the assay on L1210 [1] amounted to 280 nM; against Thymidylate synthase, 1700 nM. The Control with L1210 [2] came out at 94%.
For `C#CCN(Cc1ccc2nc(C)nc(O)c2c1)c1cc(F)c(C(=O)N[C@@H](CCC(=O)O)C(=O)O)cc1F`, the results for the IC50 in the assay with L1210 [1] and at Thymidylate synthase were 27 nM and 600 nM, respectively. For the same molecule, the Control in the assay on L1210 [2] came to 95%.
On to `Cc1nc(O)c2cc(CN(C)c3ccc(C(=O)N[C@@H](CCC(=O)O)C(=O)O)c(F)c3F)ccc2n1`, for which the results for the IC50 with L1210 [1] and against Thymidylate synthase were 140 nM and 1000 nM, respectively.
As for `C#CCN(Cc1ccc2nc(C)nc(O)c2c1)c1cc(F)c(C(=O)N[C@@H](CCC(=O)O)C(=O)O)c(F)c1`, the figures for the half-inhibitory concentration (IC50) in the assay with L1210 [1] and against Thymidylate synthase were 62 nM and 80 nM, respectively. In the assay on L1210 [2], the Control is given as 93%.
Taken in the same sequence, the figures for `Cc1nc(O)c2cc(CN(C)c3cc(F)c(C(=O)N[C@@H](CCC(=O)O)C(=O)O)cc3F)ccc2n1` were 75 nM, 1100 nM and 94%.
With `Cc1nc(O)c2cc(CN(C)c3cc(F)c(C(=O)N[C@@H](CCC(=O)O)C(=O)O)c(F)c3)ccc2n1`, the IC50 in the assay with L1210 [1] amounted to 50 nM; at Thymidylate synthase, 950 nM. The Control in the assay with L1210 [2] is on record as 90%.
